Laboratory results from patent publication US10647752B2, “Polypeptides capable of inhibiting the binding between leptin and Neuropilin-1” (INSERM (Institut National de la Sante et de la Recherche …, priority 2015, dated 2020).
“Also recorded” adds a separate entry of the source.

Assays:
[1] = system: Serine/Threonine casein kinase2 (CK2); assay: CK2 inhibition in breast cancer cell lines: NRP-1 and JAK2 phosphorylation and NRP-1/OBR complex formation; assay type: cell-based; conditions: MDA-MB231 / T47D breast cancer cell lines
[2] = system: MDA-MB231 breast cancer cell line; assay: In vitro cell migration of MDA-MB231 breast cancer cell line; assay type: cell-based, human
NRP-1/OBR complex = NRP-1/OBR complex detection in MDA-MB231 breast cancer cell line by proximity ligation assay (PLA); assay type: cell-based; conditions: MDA-MB231 cultivated in normal human serum, Avastin 40 μg/ml for 48 h, compared to untreated cells
Procedure: NRP-1 and OBR Complex Detection in MBA-MB231 Breast Cancer Cell Line by Immunocytochemistry Using a PLA Technology
The detection of NRP-1/OBR complex in human MDA-MB231 breast cancer cell line was assessed by proximity ligation assay (PLA) or duolink technology (www.olink.com). The detection of the NRP-1/OBR complex was assessed on MDA-MB231 cell line cultivated in normal human serum (human male AB plasma, USA origin, MDL number MFCD00165829 H4522 Sigma) and treated or not with Avastin 40 μg/ml final concentration for 48 h. The goal by using human serum was to mimic a physiologic condition during therapy with Avastin. The immunostained samples were analysed by the acquisition of the Z stacks through confocal microscopy on Zeiss LSM 700, Inverted confocal microscope. The acquired images were analyzed using Image J software for the quantification of NRP-1/OBR complex expressed by cells.

NRP-1 = molecular target: T1, NRP-1 (Homo sapiens, UniProt O14786); assay: Bio-layer interferometry (BLI) protein:protein interaction with NRP-1; assay type: binding; conditions: for interaction (binding) with NRP-1 by BLI: recombinant proteins, extracellular domain of recombinant NRP-1 for the peptide; for competition between leptin and VEGF for binding to NRP-1: BLI competition experiment
T1 construct: the extracellular domain of the recombinant protein NRP-1 from RnD systems; purchased RnD systems
Procedure: Bio-Layer Interferometry Bio-layer interferometry (BLI) is a label-free technique that is sensitive to an increase of mass bound to the biosensor enabling protein-protein interaction characterization. Ligands preparation: proteins were incubated in a PBS buffer with a 1:3 ratio molar ratio of biotin (biotin-PEG4-NHS from Pierce EZ kit, prepared following the manufacturer's instructions). Free biotin was removed using a desalting column (Pierce). The biotinylated protein (called ligand) was immobilized onto streptavidin biosensor tips and dipped into wells containing the buffer with the analyte of interest (association) or without (dissociation). Experimental conditions were as follow: total volume in each well: 200 μl; shake speed: 1,000 rpm. For simple protein:protein interactions an association phase was followed by a dissociation phase. For competition experiments, the association phase was followed by another association phase with a second analyte instead of a dissociation phase. Sensorgrams were background corrected, smoothed with the Savitzky-Golay algorithm and analyzed using OctetRED instrument software (ForteBio Data Analysis version 7.1). Experimental sensorgrams were first fit to a 1:1 model. The 1:1 model was accepted if the Chi^2 test was below 3 and the R^2 was above 0.9. When the 1:1 model was rejected, the model with the lowest Chi^2 and the highest R^2 was then selected.

| Compound | NRP-1 and JAK2 phosphorylation [1] | formation of the NRP-1/OBR complex [1] | other results |
| --- | --- | --- | --- |
| O=C(O)c1ccc2c(c1)nc(Nc1cccc(Cl)c1)c1ccncc12 [CX4945] | prevented | prevented | – |
| OC[C@H]1O[C@@H](n2cnc3cc(Cl)c(Cl)cc32)[C@H](O)[C@@H]1O [DRB] | prevented | prevented | – |
| Brc1c(Br)c(Br)c2n[nH]nc2c1Br [TBB] | prevented | prevented | – |
| Avastin: Anti-VEGF (bevacizumab) antibody | – | – | cell migration [2]: induces in vitro cell migration; also recorded: increased MDA-MB231 cell migration; number of NRP-1/OBR complex (NRP-1/OBR complex): increase of NRP-1/OBR complex detection; also recorded: high number of NRP-1/OBR complex |
| ENLRDLLHVLAFSKSCHLPWASGLETL (listed as Homo sapiens) [SEQ ID:3] | – | – | interaction (binding) with NRP-1 by BLI (NRP-1): validated by BLI |
| VEGF | – | – | competition between leptin and VEGF for binding to NRP-1 (NRP-1): does not prevent leptin binding to NRP-1 |
| leptin: cytokine-like hormone mainly produced by adipocytes; recombinant protein | – | – | competition between leptin and VEGF for binding to NRP-1 (NRP-1): do not compete with VEGF binding; interaction (binding) with NRP-1 by BLI (NRP-1): direct interaction |
